Measured values reported in patent US20220296521A1, “CARRIER-BASED FORMULATIONS AND RELATED METHODS” (Respira Therapeutics, Inc., priority 2019, published 2022).

Test: Tapped density of bulk powder
Format: physicochemical
Procedure: “Tapped densities” or ρtapped as used herein were measured in a fashion similar to Method I, as described in USP <616> Bulk Density and Tapped Density of Powders. Tapped densities represent a closer approximation to particle density than poured bulk densities, with measured values that are approximately 20% less than the actual particle density.
Tapped density was determined using a cylindrical cavity of known volume (0.593 cm^3). Powder was filled into this sample holder using a microspatula. The sample cell was then gently tapped on a countertop. As the sample volume decreased, more powder was added to the cell. The tapping and addition of powder steps were repeated until the cavity was filled and the powder bed no longer consolidated with further tapping. The tapped density is defined as the mass of this tapped bed of powder divided by the volume of the cavity.

Row | Tapped density | SMILES
1 | 0.16 g/mL | CC(C)C(=O)OCC(=O)[C@@]12O[C@H](C3CCCCC3)O[C@@H]1C[C@H]1[C@@H]3CCC4=CC(=O)C=C[C@]4(C)[C@H]3[C@@H](O)C[C@@]12C [Cic-B, ciclesonide]
2 | 0.17 g/mL | CC(C)C(=O)OCC(=O)[C@@]12O[C@H](C3CCCCC3)O[C@@H]1C[C@H]1[C@@H]3CCC4=CC(=O)C=C[C@]4(C)[C@H]3[C@@H](O)C[C@@]12C [Cic-A, ciclesonide]
